We go through two molecules from article PMC3850452, “Glycolic acid production in the engineered yeasts Saccharomyces cerevisiae and Kluyveromyces lactis” (Microbial Cell Factories, 2013).

Series [1] addresses T1, GLYR1 (Arabidopsis thaliana, UniProt Q9LSV0).
T1 construct: full-length gene codon optimised for yeast, TPI1 promoter multicopy plasmid (p2159/pYX212), expressed in S. cerevisiae; crude cell extract, no tag told
T1 sequence (Q9LSV0 1-289): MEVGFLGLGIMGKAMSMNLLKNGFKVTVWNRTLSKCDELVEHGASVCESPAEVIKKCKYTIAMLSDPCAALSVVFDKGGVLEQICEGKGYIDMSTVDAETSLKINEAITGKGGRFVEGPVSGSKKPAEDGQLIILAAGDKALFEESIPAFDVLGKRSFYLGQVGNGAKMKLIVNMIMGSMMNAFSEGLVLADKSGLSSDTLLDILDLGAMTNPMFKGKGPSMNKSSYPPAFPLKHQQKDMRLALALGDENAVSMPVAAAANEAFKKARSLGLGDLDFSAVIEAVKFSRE
The series can be described thus: NADPH consumption at […] nm, Michaelis-Menten fit. Format: biochemical. Conditions: crude extract of overexpressing yeast; 200 μM NADPH; 50 mM sodium phosphate pH 7; 30 °C.

Substrate in series [2]: O=CC(=O)O
The experiment in a line: cells, lysate or membranes. Format: biochemical, Saccharomyces cerevisiae. Conditions: crude extract of overexpressing yeast, 200 μM NADPH, 50 mM sodium phosphate pH 7, 30 °C.

`O=CC(=O)O` [glyoxylic acid]: in series [1], the Km was 38.8 µM.

B1: Gor1p (Saccharomyces cerevisiae S288C) (protein)
chain: MSKKPIVLKLGKDAFGDQAWGELEKIADVITIPESTTREQFLREVKDPQNKLSQVQVITRTARSVKNTGRFDEELALALPSSVVAVCHTGAGYDQIDVEPFKKRHIQVANVPDLVSNATADTHVFLLLGALRNFGIGNRRLIEGNWPEAGPACGSPFGYDPEGKTVGILGLGRIGRCILERLKPFGFENFIYHNRHQLPSEEEHGCEYVGFEEFLKRSDIVSVNVPLNHNTHHLINAETIEKMKDGVVIVNTARGAVIDEQAMTDALRSGKIRSAGLDVFEYEPKISKELLSMSQVLGLPHMGTHSVETRKKMEELVVENAKNVILTGKVLTIVPELQNEDWPNESKPLV
notes: endogenous gene overexpressed from multicopy plasmid in S. cerevisiae; crude cell extract, no tag told
Turning to B1, the Km in series [2] stood at 1.9 mM.
